Measured values: ChEMBL document CHEMBL1146660 (Bioorg Med Chem Lett, 2004)

Columns and labels:
[1] = target: T1, M-phase inducer phosphatase 1 (Homo sapiens, UniProt P30304); assay: Concentration required to inhibit human Cell division cycle 25A activity; Value ranges from […] to […]
T1 sequence (P30304 whole entry): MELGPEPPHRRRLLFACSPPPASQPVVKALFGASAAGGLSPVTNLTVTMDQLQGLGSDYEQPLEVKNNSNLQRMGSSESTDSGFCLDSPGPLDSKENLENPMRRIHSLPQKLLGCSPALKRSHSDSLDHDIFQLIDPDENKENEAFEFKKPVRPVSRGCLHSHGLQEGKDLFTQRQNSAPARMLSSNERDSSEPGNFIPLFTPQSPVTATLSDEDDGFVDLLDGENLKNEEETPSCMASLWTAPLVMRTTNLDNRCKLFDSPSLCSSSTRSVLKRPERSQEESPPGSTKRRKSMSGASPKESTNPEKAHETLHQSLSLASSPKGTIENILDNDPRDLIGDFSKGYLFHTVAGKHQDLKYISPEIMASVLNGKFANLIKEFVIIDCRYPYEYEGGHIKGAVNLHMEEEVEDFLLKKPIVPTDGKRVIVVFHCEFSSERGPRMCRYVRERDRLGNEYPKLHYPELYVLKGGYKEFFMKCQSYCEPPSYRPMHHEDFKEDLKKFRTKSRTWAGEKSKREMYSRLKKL

[2] = target: T1, M-phase inducer phosphatase 1; assay: Concentration required to inhibit human Cell division cycle 25A activity
[3] = target: T2, M-phase inducer phosphatase 2 (Homo sapiens, UniProt P30305); assay: Concentration required to inhibit human Cell division cycle 25B activity
T2 sequence (P30305 whole entry): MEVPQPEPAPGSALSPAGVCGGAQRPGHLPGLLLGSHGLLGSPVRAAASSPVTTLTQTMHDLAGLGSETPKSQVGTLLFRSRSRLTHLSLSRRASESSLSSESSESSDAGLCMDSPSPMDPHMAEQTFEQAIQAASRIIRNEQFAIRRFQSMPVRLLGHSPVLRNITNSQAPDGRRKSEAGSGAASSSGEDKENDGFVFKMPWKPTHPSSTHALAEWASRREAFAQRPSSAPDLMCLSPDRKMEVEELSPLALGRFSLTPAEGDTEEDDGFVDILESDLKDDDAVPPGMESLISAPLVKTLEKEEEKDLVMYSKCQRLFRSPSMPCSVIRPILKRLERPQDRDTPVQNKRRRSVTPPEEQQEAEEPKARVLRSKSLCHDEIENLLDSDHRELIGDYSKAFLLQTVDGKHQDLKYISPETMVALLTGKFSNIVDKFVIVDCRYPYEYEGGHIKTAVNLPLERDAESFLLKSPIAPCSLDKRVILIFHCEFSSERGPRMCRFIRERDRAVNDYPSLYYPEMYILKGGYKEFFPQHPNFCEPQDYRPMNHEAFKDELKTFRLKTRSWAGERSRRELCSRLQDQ

Compound | IC50 [1] [µM] | IC50 [2] [µM] | IC50 [3] [µM]
C=C1CC[C@H](O)C/C1=C/C=C1\CCC[C@@]2(C)C1CC[C@@H]2[C@H](C)CCCC(C)C (stereo partly drawn) | 0.89 |  | 
CC(C)CCC[C@@H](C)[C@H]1CCC2/C(=C/C(=O)O)CCC[C@@]21C (stereo partly drawn) |  | 5.5 | 8
